Test results: patent publication US9388174B2, “Azole benzene derivative” (TEIJIN PHARMA LIMITED, priority 2013, dated 2016)

What follows are molecules tested against T1, oxidase-type xanthine oxidoreductase (from buttermilk) (Bos taurus, UniProt P80457) (assay: xanthine oxidase inhibitory activity (change of absorbance at 290 nm)). Details: xanthine substrate, read-out: Inhibitor Activity.
T1 construct: purchased Calbiochem Novabiochem Corp; host or cells: buttermilk (natural source)
Format: biochemical
Procedure: Test compound was dissolved in DMSO (manufactured by Sigma Co.) to prepare a 20 mM solution. The solution was adjusted to an optimal concentration and used for the testing.
This evaluation was carried out by measuring oxidase-type xanthine oxidoreductase activity. Concretely, a xanthine (manufactured by Sigma Co.) solution was prepared at 10 mM using a 20 mM sodium hydroxide solution and then mixed with 100 mM phosphate buffer to adjusted to 30 μM. 75 μL of the solution was added to each well of the 96-well plate. The test compound diluted with DMSO at 100 times of a final concentration was added to each well at 1.5 μL per well. […] Immediately after mixing, the change of absorbance at 290 nm was measured for 5 minutes. The enzyme activity of DMSO solution without test compound was used as 100% control, and the inhibitory rate of the test compounds was calculated. Fifty percent inhibitory concentration of the test compounds on the oxidase-type xanthine oxidoreductase activity was calculated by fitting to the dose-response curve.

T1 sequence (P80457 whole entry): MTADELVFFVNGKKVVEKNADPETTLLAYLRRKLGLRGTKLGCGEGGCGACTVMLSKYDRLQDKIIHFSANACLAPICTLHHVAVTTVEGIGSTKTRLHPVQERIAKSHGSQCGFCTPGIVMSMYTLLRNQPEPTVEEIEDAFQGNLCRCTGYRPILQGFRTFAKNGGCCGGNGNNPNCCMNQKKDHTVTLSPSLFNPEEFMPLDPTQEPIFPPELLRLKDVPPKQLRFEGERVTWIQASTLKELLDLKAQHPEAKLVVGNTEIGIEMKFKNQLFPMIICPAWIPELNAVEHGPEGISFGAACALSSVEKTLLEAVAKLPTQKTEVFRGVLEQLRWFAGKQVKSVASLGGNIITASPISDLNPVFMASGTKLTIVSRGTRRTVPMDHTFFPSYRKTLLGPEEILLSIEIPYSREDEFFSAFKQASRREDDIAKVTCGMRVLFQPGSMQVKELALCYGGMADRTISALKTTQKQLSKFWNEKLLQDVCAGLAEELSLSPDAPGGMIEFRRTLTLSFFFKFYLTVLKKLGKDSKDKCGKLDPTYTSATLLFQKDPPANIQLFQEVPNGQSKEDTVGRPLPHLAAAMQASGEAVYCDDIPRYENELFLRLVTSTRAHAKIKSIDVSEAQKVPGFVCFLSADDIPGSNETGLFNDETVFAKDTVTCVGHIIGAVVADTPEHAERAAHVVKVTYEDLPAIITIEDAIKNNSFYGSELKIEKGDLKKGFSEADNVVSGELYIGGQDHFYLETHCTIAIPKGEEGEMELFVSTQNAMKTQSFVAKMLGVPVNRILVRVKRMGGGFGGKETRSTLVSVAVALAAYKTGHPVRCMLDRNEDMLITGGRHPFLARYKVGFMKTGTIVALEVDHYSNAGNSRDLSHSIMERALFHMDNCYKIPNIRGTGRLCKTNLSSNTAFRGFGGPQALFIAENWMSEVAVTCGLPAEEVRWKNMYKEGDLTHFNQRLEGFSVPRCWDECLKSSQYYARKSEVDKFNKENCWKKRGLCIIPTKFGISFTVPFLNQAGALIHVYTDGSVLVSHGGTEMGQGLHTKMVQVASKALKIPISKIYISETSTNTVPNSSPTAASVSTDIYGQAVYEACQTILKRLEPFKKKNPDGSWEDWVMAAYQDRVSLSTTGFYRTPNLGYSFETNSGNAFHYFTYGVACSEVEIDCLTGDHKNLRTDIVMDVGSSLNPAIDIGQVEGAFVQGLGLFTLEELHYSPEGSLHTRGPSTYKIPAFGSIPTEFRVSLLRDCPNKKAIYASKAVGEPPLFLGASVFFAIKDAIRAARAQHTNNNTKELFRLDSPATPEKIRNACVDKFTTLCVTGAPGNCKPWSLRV

Row | Compound | IC50 [nM]
1 | Cc1nc(-c2ccc(OCC(C)C)c(-n3ncnc3C)c2)sc1C(=O)O [compound 14, 4-methyl-2-[3-(5-methyl-1H-1,2,4-triazol-1-yl)-4-(2-methylpropoxy)phenyl]-1,3-thiazole-5-carboxylic acid] | 1 to 5
2 | Cc1nc(-c2ccc(Oc3ccc(F)cc3F)c(-n3cnnn3)c2)sc1C(=O)O [compound 42, 2-[4-(2,4-difluorophenoxy)-3-(1H-1,2,3,4-tetrazol-1-yl)phenyl]-4-methyl-1,3-thiazole-5-carboxylic acid] | 1 to 5
3 | Cc1nc(-c2ccc(Oc3ccccc3F)c(-n3cnnn3)c2)sc1C(=O)O [compound 34, 2-[4-(2-fluorophenoxy)-3-(1H-1,2,3,4-tetrazol-1-yl)phenyl]-4-methyl-1,3-thiazole-5-carboxylic acid] | 1 to 5
4 | Cc1ccc(Oc2ccc(-c3nc(C)c(C(=O)O)s3)cc2-n2cnnn2)cc1 [compound 45, 2-[4-(4-methylphenoxy)-3-(1H-1,2,3,4-tetrazol-1-yl)phenyl]-4-methyl-1,3-thiazole-5-carboxylic acid] | 1 to 5
5 | Cc1nc(-c2ccc(OCC(C)(C)C)c(-n3ccnc3)c2)sc1C(=O)O [Compound No. 2, 2-[4-(2,2-dimethylpropoxy)-3-(1H-imidazol-1-yl)phenyl]-4-methyl-1,3-thiazole-5-carboxylic acid] | 5 to 10
6 | Cc1cc(Oc2ccc(-c3nc(C)c(C(=O)O)s3)cc2-n2cnnn2)ccc1F [compound 40, 2-[4-(4-fluoro-3-methylphenoxy)-3-(1H-1,2,3,4-tetrazol-1-yl)phenyl]-4-methyl-1,3-thiazole-5-carboxylic acid] | 1 to 5
7 | Cc1nc(-c2ccc(N3CCCC3)c(-n3cnnn3)c2)sc1C(=O)O [Compound No. 53, 4-methyl-2-[4-(pyrrolidin-1-yl)-3-(1H-1,2,3,4-tetrazol-1-yl)phenyl]-1,3-thiazole 5-carboxylic acid] | 1 to 5
8 | Cc1nc(-c2ccc(OC3CCCC3)c(-n3cnnn3)c2)sc1C(=O)O [compound 28, 2-[4-(cyclopentyloxy)-3-(1H-1,2,3,4-tetrazol-1-yl)phenyl]-4-methyl-1,3-thiazole-5-carboxylic acid] | 1 to 5
9 | Cc1nc(-c2ccc(Oc3c(F)cccc3F)c(-n3cnnn3)c2)sc1C(=O)O [compound 36, 2-[4-(2,6-difluorophenoxy)-3-(1H-1,2,3,4-tetrazol-1-yl)phenyl]-4-methyl-1,3-thiazole-5-carboxylic acid] | 1 to 5
10 | Cc1nc(-c2ccc(Oc3ccccc3F)c(-n3ccnc3)c2)sc1C(=O)O [Compound No. 8, 2-[4-(2-fluorophenoxy)-3-(1H-imidazol-1-yl)phenyl]-4-methyl-1,3-thiazole-5-carboxylic acid] | > 10
11 | Cc1nc(-c2ccc(SCC(C)C)c(-n3cnnn3)c2)sc1C(=O)O [Compound No. 49, 4-methyl-2-{4-[(2-methylpropyl)sulfanyl]-3-(1H-1,2,3,4-tetrazol-1-yl)phenyl}-1,3-thiazole-5-carboxylic acid] | 1 to 5
12 | Cc1nc(-c2ccc(OCC(C)C)c(-n3ccnn3)c2)sc1C(=O)O [compound 17, 4-methyl-2-[4-(2-methylpropoxy)-3-(1H-1,2,3-triazol-1-yl)phenyl]-1,3-thiazole-5-carboxylic acid] | 1 to 5
13 | Cc1nc(-c2ccc(OCC(C)CO)c(-n3cnnn3)c2)sc1C(=O)O (stereo not shown) [Compound No. 29, 2-[4-(3-hydroxy-2-methylpropoxy)-3-(1H-1,2,3,4-tetrazol-1-yl)phenyl]-4-methyl-1,3-thiazole-5-carboxylic acid] | 1 to 5
14 | Cc1nc(-c2ccc(Oc3ccccc3)c(-n3cncn3)c2)sc1C(=O)O [Compound No. 15] | > 10
15 | CCN(CC)c1ccc(-c2nc(C)c(C(=O)O)s2)cc1-n1cnnn1 [Compound No. 52, 2-[4-(N,N-diethylamino)-3-(1H-1,2,3,4-tetrazol-1-yl)phenyl]-4-methyl-1,3-thiazole-5-carboxylic acid] | 1 to 5

The molecules below were run on level of uric acid in the plasma (assay: Hypouricemic effect (oxonic acid-induced hyperuricemic beagle dogs)). Details: hyperuricemic beagle dog, oral, 10 mg/kg, 8 hours after administration.
Format: in vivo
Procedure: Potassium oxonate (50 mg/kg) was subcutaneously administrated before and 4 hours after compound administration. After the blood was collected from the cephalic vein at 8 hours after administration, the plasma was separated. The level of uric acid in the plasma sample was measured by LC-MS/MS method and the percentage of hypouricemic effect was determined by the following expression: Percentage of hypouricemic effect (%)=(Level of uric acid of the control animal−Level of uric acid of the test compound-administered animal)×100/Level of uric acid of the control animal.

Row | Compound | hypouricemic effect
16 | Cc1nc(-c2ccc(OCC(C)C)c(-n3cnnn3)c2)sc1C(=O)O [Compound No. 25, 4-methyl-2-[4-(2-methylpropoxy)-3-(1H-1,2,3,4-tetrazol-1-yl)phenyl]-1,3-thiazole-5-carboxylic acid] | showed a hypouricemic effect
